Structures can show the parent of a compound that is named as a salt.

Usually IC50 stands for the point on the concentration scale where inhibition reaches its midpoint.

The first test deals with T1, human Nav1.8 (hNav1.8) ion channel (Homo sapiens, UniProt Q9Y5Y9).
T1 construct: expressed in transfected cells
T1 sequence (Q9Y5Y9 whole entry): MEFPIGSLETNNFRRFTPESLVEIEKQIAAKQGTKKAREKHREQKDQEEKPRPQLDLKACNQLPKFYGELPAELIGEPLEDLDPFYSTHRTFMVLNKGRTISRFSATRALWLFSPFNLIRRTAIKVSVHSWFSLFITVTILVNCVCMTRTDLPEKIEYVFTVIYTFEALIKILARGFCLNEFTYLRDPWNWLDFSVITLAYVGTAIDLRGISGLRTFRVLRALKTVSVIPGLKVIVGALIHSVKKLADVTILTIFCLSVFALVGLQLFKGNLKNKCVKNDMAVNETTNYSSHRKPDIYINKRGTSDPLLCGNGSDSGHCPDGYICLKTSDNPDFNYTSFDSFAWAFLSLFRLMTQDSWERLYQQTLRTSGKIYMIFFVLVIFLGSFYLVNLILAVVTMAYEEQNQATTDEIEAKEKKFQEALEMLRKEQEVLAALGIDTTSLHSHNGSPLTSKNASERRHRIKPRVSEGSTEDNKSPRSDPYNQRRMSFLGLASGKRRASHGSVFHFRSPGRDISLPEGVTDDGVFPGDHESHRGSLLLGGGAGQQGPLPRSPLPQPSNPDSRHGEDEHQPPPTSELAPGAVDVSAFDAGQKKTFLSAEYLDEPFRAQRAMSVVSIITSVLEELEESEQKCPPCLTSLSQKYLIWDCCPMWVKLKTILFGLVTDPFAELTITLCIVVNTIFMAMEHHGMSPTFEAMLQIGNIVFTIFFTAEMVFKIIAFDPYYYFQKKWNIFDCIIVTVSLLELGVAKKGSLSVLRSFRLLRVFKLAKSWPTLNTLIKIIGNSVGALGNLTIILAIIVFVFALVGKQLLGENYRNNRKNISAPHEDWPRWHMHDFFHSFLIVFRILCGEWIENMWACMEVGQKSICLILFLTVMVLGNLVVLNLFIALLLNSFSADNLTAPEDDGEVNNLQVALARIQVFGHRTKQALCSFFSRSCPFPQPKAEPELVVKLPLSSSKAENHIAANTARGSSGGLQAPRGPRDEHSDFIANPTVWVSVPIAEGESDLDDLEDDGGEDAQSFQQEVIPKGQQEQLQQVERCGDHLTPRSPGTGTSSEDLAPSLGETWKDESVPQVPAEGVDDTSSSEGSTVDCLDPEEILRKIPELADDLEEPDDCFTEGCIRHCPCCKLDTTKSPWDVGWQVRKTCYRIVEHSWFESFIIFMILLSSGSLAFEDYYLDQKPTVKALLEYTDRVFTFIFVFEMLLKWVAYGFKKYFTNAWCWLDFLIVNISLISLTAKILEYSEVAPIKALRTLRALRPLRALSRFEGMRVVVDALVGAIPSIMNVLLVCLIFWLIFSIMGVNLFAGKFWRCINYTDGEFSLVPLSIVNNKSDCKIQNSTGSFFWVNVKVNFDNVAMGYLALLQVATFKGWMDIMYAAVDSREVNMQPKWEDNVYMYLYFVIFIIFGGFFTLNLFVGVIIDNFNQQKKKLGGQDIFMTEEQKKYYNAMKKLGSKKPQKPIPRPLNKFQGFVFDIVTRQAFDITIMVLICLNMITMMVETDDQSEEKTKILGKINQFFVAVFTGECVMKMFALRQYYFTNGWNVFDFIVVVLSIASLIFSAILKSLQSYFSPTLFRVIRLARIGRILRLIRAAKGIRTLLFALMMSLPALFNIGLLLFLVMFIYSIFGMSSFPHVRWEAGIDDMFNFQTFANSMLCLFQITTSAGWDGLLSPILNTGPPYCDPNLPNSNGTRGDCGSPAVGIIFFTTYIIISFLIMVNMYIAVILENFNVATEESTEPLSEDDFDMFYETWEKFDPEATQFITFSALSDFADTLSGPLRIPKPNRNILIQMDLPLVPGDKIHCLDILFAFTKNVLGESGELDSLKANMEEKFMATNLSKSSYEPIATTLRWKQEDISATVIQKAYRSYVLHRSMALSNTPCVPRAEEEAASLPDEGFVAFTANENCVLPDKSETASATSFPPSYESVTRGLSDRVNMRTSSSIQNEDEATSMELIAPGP
The test can be described thus: Inhibition of human Nav1.8 stably expressed in SH-SY-5Y cells (membrane potential dye fluorescence assay). The following applies: SH-SY-5Y hNav1.8 cells; FLIPR membrane potential dye; 10 μM pyrethroid, 250 nM TTX; test concentration range 100 μM-0.05 μM; read-out: hNav1.8 IC50. Format: cell-based. As to the method:
Inhibition of Human Nav1.8 stably expressed in SH-SY-5Y Cells
A SH-SY-5Y neuroblastoma cell line stably expressing the human Nav1.8 (hNav1.8) ion channel was constructed. This cell line has been used to develop a medium to high throughput assay for determining the ability of test compounds to inhibit membrane depolarisation mediated via the hNav1.8 channel.
SH-SY-5Y hNav1.8 are grown in adherent monolayer culture using 50:50 Ham's F-12/EMEM tissue culture medium supplemented with 15% (v/v) foetal bovine serum; 2 mM L-glutamine, 1% NEAR and 600 μg·ml^−1 Geneticin sulphate. Cells are removed from the tissue culture flask using trypsin/EDTA and re-plated into black walled, clear bottom 96-well assay plates at 50,000 cells·well^−1 24 hours prior to assay.
On the day of assay the cell assay plates are washed to remove cell culture medium using a sodium free assay buffer (145 mM tetramethyl ammonium chloride; 2 mM calcium chloride; 0.8 mM magnesium chloride hexahydrate; 10 mM HEPES; 10 mM glucose; 5 mM potassium chloride, pH 7.4). Fluorescent membrane potential dye solution (FLIPR™ membrane potential dye, Molecular Devices Corporation), containing 10 μM of a pyrethroid to prevent channel inactivation and 250 nM tetrodotoxin (TTX) to reduce interference from TTX-sensitive sodium channels present in the cell line. Test compound, initially dissolved in dimethyl sulfoxide but further diluted in sodium free buffer, is added to achieve the final test concentration range of 100 μM-0.05 μM.
Cell plates are incubated for 30 minutes at room temperature to allow equilibration of dye and test compound. Plates are then transferred to a fluorescence plate reader for fluorescence measurement using an excitation wavelength of 530 nm whilst measuring fluorescence emission at 565 nm. Baseline fluorescence levels are first determined before the addition of a sodium containing buffer (220 mM sodium chloride; 2 mM calcium chloride; 0.8 mM magnesium chloride hexahydrate; 10 mM HEPES; 10 mM glucose; 5 mM potassium chloride. pH 7.4) to cause membrane depolarisation in those cells where channel block has not been effected (final sodium concentration=72.5 mM). Membrane depolarisation is registered by an increase in fluorescence emission at 565 nm.
The change in fluorescence seen in each test well upon the addition of sodium containing buffer is calculated relative to the baseline fluorescence for that well. This figure is then used for calculating the IC50 for each test compound.
As for `CC(c1ccc(F)cc1Cl)N1CC2CC1CN2C(=O)c1ccc(Oc2ccc(F)cc2)cc1` (stereo not drawn) [Example 163, {5-[1-(2-Chloro-4-fluoro-phenyl)-ethyl]-2,5-diaza-bicyclo[2.2.1]hept-2-yl}-[4-(4-fluoro-phenoxy)-phenyl]-methanone], the IC50 was 17700 nM.

As for `O=C(Nc1ccc(Oc2ccc(F)cc2)cc1)N1CC2CN(C3Cc4ccccc4C3)CC2C1` (stereo not drawn) [Example 112, 5-Indan-2-yl-hexahydro-pyrrolo[3,4-c]pyrrole-2-carboxylic acid [4-(4-fluoro-phenoxy)-phenyl]-amide], the half-maximal inhibitory concentration (IC50) came out at 300 nM.

Regarding `CC(c1ccc(F)cc1Cl)N1CC2CC1CN2C(=O)Nc1ccc(Oc2ccccc2)cc1` (stereo not drawn) [Example 7, 5-[1-(2-Chloro-4-fluoro-phenyl)-ethyl]-2,5-diaza-bicyclo[2.2.1]heptane-2-carboxylic acid (4-phenoxy-phenyl)-amide], the IC50 is 4320 nM.

Turning to `CC(c1ccccc1Cl)N1CC2CC1CN2C(=O)Nc1ccc(Oc2ccc(Cl)cc2)cc1` (stereo not drawn) [Example 129, 5-[1-(2-Chloro-phenyl)-ethyl]-2,5-diaza-bicyclo[2.2.1]heptane-2-carboxylic acid [4-(4-chloro-phenoxy)-phenyl]-amide], the IC50 was found to be 3800 nM.

Turning to `Cc1ccsc1CN1CC2CC1CN2C(=O)Nc1ccc(Oc2ccccc2)nc1` (stereo not drawn) [Example 2, 5-(3-Methyl-thiophen-2-ylmethyl)-2,5-diaza-bicyclo[2.2.1]heptane-2-carboxylic acid (6-phenoxy-pyridin-3-yl)-amide], the IC50 was determined as 3740 nM.

Regarding `CCCCOc1ccc(NC(=O)N2CC3CC2CN3C(C)c2ccccc2C)cc1` (stereo not drawn) [Example 5, 5-(1-o-Tolyl-ethyl)-2,5-diaza-bicyclo[2.2.1]heptane-2-carboxylic acid (4-butoxy-phenyl)-amide], the IC50 amounted to 570 nM.

With `O=C(Nc1ccc(Oc2ccccc2)cc1)N1CC2CC1CN2C1CCc2cccc(Cl)c21` (stereo not drawn) [Example 141, 5-(7-Chloro-indan-1-yl)-2,5-diaza-bicyclo[2.2.1]heptane-2-carboxylic acid (4-phenoxy-phenyl)-amide], the IC50 amounted to 200 nM.

On to `O=C(Nc1ccc(Oc2ccc(F)cc2)cc1)N1CC2CC1CN2C1CCc2ccccc2C1` (stereo not drawn) [Example 97, 5-(1,2,3,4-Tetrahydro-naphthalen-2-yl)-2,5-diaza-bicyclo[2.2.1]heptane-2-carboxylic acid [4-(4-fluoro-phenoxy)-phenyl]-amide], for which the IC50 was determined as 310 nM.

Consider `CC(c1ccccc1C(F)(F)F)N1CC2CC1CN2C(=O)Nc1cccc(C(F)(F)F)c1` (stereo not drawn) [Example 57, 5-[1-(2-Trifluoromethyl-phenyl)-ethyl]-2,5-diaza-bicyclo[2.2.1]heptane-2-carboxylic acid (3-trifluoromethyl-phenyl)-amide], for which the IC50 worked out at 5130 nM.

In the case of `CC(c1ccccc1Cl)N1CC2CC1CN2C(=O)Nc1ccc(Oc2ccc(Cl)cc2)cc1` (stereo not drawn) [Example 128, 5-[1-(2-Chloro-phenyl)-ethyl]-2,5-diaza-bicyclo[2.2.1]heptane-2-carboxylic acid [4-(4-chloro-phenoxy)-phenyl]-amide], the IC50 amounted to 1420 nM.

Consider `O=C(Nc1ccc(Oc2ccc(F)cc2)cc1)N1CC2CC1CN2C1CCc2cc(F)ccc21` (stereo not drawn) [Example 93, 5-(5-Fluoro-indan-1-yl)-2,5-diaza-bicyclo[2.2.1]heptane-2-carboxylic acid [4-(4-fluoro-phenoxy)-phenyl]-amide], for which the IC50 worked out at 310 nM.

For the compound `Cc1ccccc1C(C)N1CC2CC1CN2C(=O)Nc1ccc(OC2CCCC2)cc1` (stereo not drawn) [Example 24, 5-(1-o-Tolyl-ethyl)-2,5-diaza-bicyclo[2.2.1]heptane-2-carboxylic acid (4-cyclopentyloxy-phenyl)-amide], the half-maximal inhibitory concentration (IC50) amounted to 890 nM.

As to `CC(Cc1ccccc1Cl)N1CC2CC1CN2C(=O)Nc1ccc(C(F)(F)F)cc1` (stereo not drawn) [Example 82, 5-[2-(2-Chloro-phenyl)-1-methyl-ethyl]-2,5-diaza-bicyclo[2.2.1]heptane-2-carboxylic acid (4-trifluoromethyl-phenyl)-amide], the IC50 came to 440 nM.

Regarding `Cc1ccccc1C(C)N1CC2CC1CN2C(=O)Nc1ccc(OCCN2CCCC2)cc1` (stereo not drawn) [Example 41, 5-(1-o-Tolyl-ethyl)-2,5-diaza-bicyclo[2.2.1]heptane-2-carboxylic acid [4-(2-pyrrolidin-1-yl-ethoxy)-phenyl]-amide], the IC50 is at least 30000 nM.

In the case of `COCCOc1ccc(NC(=O)N2CC3CC2CN3C(C)c2ccccc2C)cc1` (stereo not drawn) [Example 19, 5-(1-o-Tolyl-ethyl)-2,5-diaza-bicyclo[2.2.1]heptane-2-carboxylic acid [4-(2-methoxy-ethoxy)-phenyl]-amide], the IC50 was at least 30000 nM.

On to `Cc1cc(F)ccc1C(C)N1CC2CC1CN2C(=O)Nc1ccc(Oc2ccc(F)cc2)cc1` (stereo not drawn) [Example 75, 5-[1-(4-Fluoro-2-methyl-phenyl)-ethyl]-2,5-diaza-bicyclo[2.2.1]heptane-2-carboxylic acid [4-(4-fluoro-phenoxy)-phenyl]-amide], for which the IC50 was 570 nM.

For `Cc1cc(F)ccc1C(C)N1CC2CC1CN2C(=O)Nc1ccc(Oc2ccccc2)cc1` (stereo not drawn) [Example 64, 5-[1-(4-Fluoro-2-methyl-phenyl)-ethyl]-2,5-diaza-bicyclo[2.2.1]heptane-2-carboxylic acid (4-phenoxy-phenyl)-amide], the IC50 was found to be 270 nM.

As for `Cc1ccccc1C(C)N1CC2CC1CN2C(=O)Nc1ccc(OCc2ccccc2)cc1` (stereo not drawn) [Example 33, 5-(1-o-Tolyl-ethyl)-2,5-diaza-bicyclo[2.2.1]heptane-2-carboxylic acid (4-benzyloxy-phenyl)-amide], the IC50 came to 490 nM.

`O=C(c1ccc(C(F)(F)F)cc1)N1CC2CC1CN2C1CCc2ccccc2C1` (stereo not drawn) [Example 137, [5-(1,2,3,4-Tetrahydro-naphthalen-2-yl)-2,5-diaza-bicyclo[2.2.1]hept-2-yl]-(4-trifluoromethyl-phenyl)-methanone]: the IC50 was 23200 nM.

`CC(c1ccccc1C(F)(F)F)N1CC2CC1CN2C(=O)Nc1ccc(Oc2ccccc2)cc1` (single isomer, unassigned) [Example 62, 5-[1-(2-Trifluoromethyl-phenyl)-ethyl]-2,5-diaza-bicyclo[2.2.1]heptane-2-carboxylic acid (4-phenoxy-phenyl)-amide]: the IC50 came out at 17200 nM.

As to `O=C(Nc1ccc(Oc2ccc(F)cc2)cc1)N1CC2CC1CN2C1CCc2cc(F)ccc21` (stereo not drawn) [Example 92, 5-(5-Fluoro-indan-1-yl)-2,5-diaza-bicyclo[2.2.1]heptane-2-carboxylic acid [4-(4-fluoro-phenoxy)-phenyl]-amide], the IC50 is 360 nM.

Take `CC(c1ccccc1C(F)(F)F)N1CC2CC1CN2C(=O)Nc1cccc(Oc2ccccc2)c1` (stereo not drawn) [Example 63, 5-[1-(2-Trifluoromethyl-phenyl)-ethyl]-2,5-diaza-bicyclo[2.2.1]heptane-2-carboxylic acid (3-phenoxy-phenyl)-amide]: the IC50 worked out at 6100 nM.

With `CCCCOc1ccc(NC(=O)N2CC3CC2CN3Cc2sccc2C)cc1` (stereo not drawn) [Example 3, 5-(3-Methyl-thiophen-2-ylmethyl)-2,5-diaza-bicyclo[2.2.1]heptane-2-carboxylic acid (4-butoxy-phenyl)-amide], the IC50 was 1030 nM.

The same test, now with this note: hNav1.8 IC50, SH-SY-5Y hNav1.8 cells; FLIPR membrane potential dye; 10 μM pyrethroid, 250 nM TTX; test concentration range 100 μM-0.05 μM.
The compound `Cc1ccccc1C(C)N1CC2CC1CN2C(=O)Nc1ccc(Oc2ccc(F)cc2)cc1` (stereo not drawn) [Example 78, 5-(1-o-Tolyl-ethyl)-2,5-diaza-bicyclo[2.2.1]heptane-2-carboxylic acid [4-(4-fluoro-phenoxy)-phenyl]-amide fumarate salt] gave an IC50 of 230 nM.

As to `Cc1ccccc1C(C)N1CC2CC1CN2C(=O)Cc1ccc(Oc2cccc(F)c2)cc1` (stereo not drawn) [Example 172, 2-[4-(3-Fluoro-phenoxy)-phenyl]-1-[5-(1-o-tolyl-ethyl)-2,5-diaza-bicyclo[2.2.1]hept-2-yl]-ethanone], the IC50 was 710 nM.

In the case of `Cc1ccccc1C(C)N1CC2CC1CN2C(=O)Nc1ccc(Oc2ccc(F)cc2)cc1` (single isomer, unassigned) [Example 29, 5-(1-o-Tolyl-ethyl)-2,5-diaza-bicyclo[2.2.1]heptane-2-carboxylic acid [4-(4-fluoro-phenoxy)-phenyl]-amide], it took 340 nM to reach half-maximal inhibition (IC50).

As for `CC(c1ccc(Cl)cc1Cl)N1CC2CC1CN2C(=O)Cc1ccc(Oc2ccc(F)cc2)cc1` (stereo not drawn) [Example 155, 1-{5-[1-(2,4-Dichloro-phenyl)-ethyl]-2,5-diaza-bicyclo[2.2.1]hept-2-yl}-2-[4-(4-fluoro-phenoxy)-phenyl]-ethanone], half-maximal inhibition (IC50) was put at 18200 nM.
